Inhibition data for two molecules are collected here from article PMC11267548 (JACS Au, 2024).

This test deals with T1, ScGPUT (Solitalea canadensis, UniProt H8KMA8).
T1 sequence (H8KMA8 1-293): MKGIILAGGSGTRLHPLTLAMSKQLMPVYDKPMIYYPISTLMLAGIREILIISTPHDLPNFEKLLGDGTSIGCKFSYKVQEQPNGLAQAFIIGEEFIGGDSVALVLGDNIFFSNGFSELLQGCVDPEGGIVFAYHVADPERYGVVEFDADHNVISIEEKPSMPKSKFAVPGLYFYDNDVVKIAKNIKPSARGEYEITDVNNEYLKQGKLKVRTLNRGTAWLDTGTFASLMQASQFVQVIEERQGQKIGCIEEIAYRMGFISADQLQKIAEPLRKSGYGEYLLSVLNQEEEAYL
Nature of the test: conversion of xylose-1-phosphate to UDP-xylose, TLC. The format is biochemical. Conditions: read-out: % inhibition at 10 mM.

For `Nc1ncnc2c1ncn2[C@@H]1O[C@H](COP(=O)(O)OP(=O)(O)O)[C@@H](O)[C@H]1O` [ADP], the inhibition (commonly how much of the control response was suppressed) at 10000 µM is above 50%.
The result for `Nc1ncnc2c1ncn2[C@@H]1O[C@H](COP(=O)(O)OP(=O)(O)OP(=O)(O)O)[C@@H](O)[C@H]1O` [ATP] reads above 50%.
